Measured values as given in PubChem BioAssay AID330 (DTP/NCI, 2004).
Values joined by “and” are separate entries in the source; they are usually repeats but may differ in a detail not shown here. Identical values can stand only once. Inconclusive results and toxic doses are left out. How the source made its calls: active means survival T/C of 150% or more; inactive means T/C below 125% in these data.

System: P388 leukemia ip, CD2F1 mice, survival T/C
Experiment: NCI In Vivo Anticancer Drug Screen. Data for tumor model P388 Leukemia (intraperitoneal) in CD2F1 (CDF1) mice
Conditions: endpoint: median survival time, higher = longer survival
Summary of the method: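 Mice carrying the transplanted tumor received test compound or vehicle. Survival was recorded in each group, and the value is the treated-group measurement divided by that of the vehicle-treated control group.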

[1] = dose: 50.0 mg/kg/injection, schedule: Q01DX009 (ip), vehicle: Klucel (hydroxypropylcellulose) (HPC)
[2] = dose: 100.0 mg/kg/injection, schedule: Q01DX009 (ip), vehicle: Klucel (hydroxypropylcellulose) (HPC)
[3] = dose: 50.0 mg/kg/injection, schedule: Q01DX005 (ip), vehicle: Klucel (hydroxypropylcellulose) (HPC)
[4] = dose: 100.0 mg/kg/injection, schedule: Q01DX005 (ip), vehicle: Klucel (hydroxypropylcellulose) (HPC)
[5] = dose: 200.0 mg/kg/injection, schedule: Q01DX009 (ip), vehicle: Klucel (hydroxypropylcellulose) (HPC)
[6] = dose: 100.0 mg/kg/injection, schedule: Q04DX003 (ip), vehicle: saline with Tween-80
[7] = dose: 200.0 mg/kg/injection, schedule: Q04DX003 (ip), vehicle: saline with Tween-80

Measured: T/C

CCN(CC)Cc1cc(N=Nc2cc(OC)c(N=Nc3ccc([N+](=O)[O-])cc3)cc2OC)c2ccccc2c1O
inactive: dose: 12.5 mg/kg/injection, schedule: Q01DX009 (ip), vehicle: Klucel (hydroxypropylcellulose) (HPC) 110 % of control | dose: 25.0 mg/kg/injection, schedule: Q01DX009 (ip), vehicle: Klucel (hydroxypropylcellulose) (HPC) 100 % of control | [1] 107 % of control and 90 % of control | [2] 100 % of control (2×) and 94 % of control | dose: 400.0 mg/kg/injection, schedule: Q01DX009 (ip), vehicle: Klucel (hydroxypropylcellulose) (HPC) 101 % of control and 91 % of control

O=C(OC(c1ccccc1)c1ccccc1)C1CSCN1C(=O)OCc1ccccc1[N+](=O)[O-] (stereo not given)
inactive: dose: 50.0 mg/kg/injection, schedule: Q01DX005 (ip), vehicle: saline with Tween-80 108 % of control | dose: 100.0 mg/kg/injection, schedule: Q01DX005 (ip), vehicle: saline with Tween-80 110 % of control | dose: 200.0 mg/kg/injection, schedule: Q01DX005 (ip), vehicle: saline with Tween-80 100 % of control

N=C(N)COc1ccccc1
inactive: dose: 12.5 mg/kg/injection, schedule: Q01DX005 (ip), vehicle: saline 95 % of control | dose: 25.0 mg/kg/injection, schedule: Q01DX005 (ip), vehicle: saline 95 % of control | dose: 50.0 mg/kg/injection, schedule: Q01DX005 (ip), vehicle: saline 99 % of control and 101 % of control

OCCN1CCN(CCCN2c3cscc3Sc3ccc(Cl)cc32)CC1
inactive: [3] 94 % of control and 95 % of control | [4] 101 % of control

CC(=O)Nc1ccc(NC(=O)Nc2c(Cl)cccc2Cl)cc1
inactive: [1] 100 % of control | [2] 98 % of control | [5] 91 % of control

S=C(N/N=C/c1ccccn1)SCc1ccccc1
inactive: [1] 101 % of control | [2] 104 % of control | [5] 100 % of control

FC(F)(F)c1ccc2c(N/N=C/c3ccc(N(CCCl)CCCl)cc3)ccnc2c1
inactive: dose: 100.0 mg/kg/injection, schedule: Q04DX003 (ip), vehicle: Klucel (hydroxypropylcellulose) (HPC) 111 % of control | dose: 200.0 mg/kg/injection, schedule: Q04DX003 (ip), vehicle: Klucel (hydroxypropylcellulose) (HPC) 99 % of control | dose: 400.0 mg/kg/injection, schedule: Q04DX003 (ip), vehicle: Klucel (hydroxypropylcellulose) (HPC) 90 % of control

CC(C)CCC(C)C1CCC2C3CC([N+](=O)[O-])=C4CC(OC(=O)c5ccccc5)CCC4(C)C3CCC12C (stereo not given)
inactive: [6] 90 % of control | [7] 90 % of control | dose: 400.0 mg/kg/injection, schedule: Q04DX003 (ip), vehicle: saline with Tween-80 90 % of control

CC(C)CC(C(=O)O)N1C(=O)c2ccccc2C1=O (stereo not given)
inactive: [3] 98 % of control | [4] 100 % of control | dose: 200.0 mg/kg/injection, schedule: Q01DX005 (ip), vehicle: Klucel (hydroxypropylcellulose) (HPC) 95 % of control

O=C(CBr)c1cc2c(cc1Br)OCO2
inactive: dose: 12.5 mg/kg/injection, schedule: Q01DX001 (ip), vehicle: Klucel (hydroxypropylcellulose) (HPC) 102 % of control | dose: 25.0 mg/kg/injection, schedule: Q01DX001 (ip), vehicle: Klucel (hydroxypropylcellulose) (HPC) 104 % of control | dose: 50.0 mg/kg/injection, schedule: Q01DX001 (ip), vehicle: Klucel (hydroxypropylcellulose) (HPC) 103 % of control

O.O=C(O)CN(CCN(CC(=O)O)CC(=O)O)CC(=O)O.[Rh+2]
inactive: dose: 100.0 mg/kg/injection, schedule: Q01DX009 (ip), vehicle: saline sonified 90 % of control | dose: 200.0 mg/kg/injection, schedule: Q01DX009 (ip), vehicle: saline sonified 90 % of control | dose: 400.0 mg/kg/injection, schedule: Q01DX009 (ip), vehicle: saline sonified 95 % of control

CC(=O)OCC1CC2COCC2CC1COC(C)=O (stereo not given)
inactive: dose: 60.0 mg/kg/injection, schedule: Q01DX005 (ip), vehicle: saline with Tween-80 100 % of control | dose: 120.0 mg/kg/injection, schedule: Q01DX005 (ip), vehicle: saline with Tween-80 108 % of control | dose: 240.0 mg/kg/injection, schedule: Q01DX005 (ip), vehicle: saline with Tween-80 102 % of control

CCN1CCC(=O)C1
inactive: dose: 50.0 mg/kg/injection, schedule: Q04DX003 (ip), vehicle: saline with Tween-80 104 % of control | [6] 105 % of control | [7] 105 % of control
